Source: ChEMBL document CHEMBL4152339, “Design and synthesis of novel 1H-tetrazol-5-amine based potent antimicrobial agents: DNA topoisomerase IV and gyrase affinity evaluation supported by molecular docking studies” (Eur J Med Chem, 2018)
In brackets after ≈: the same amount, converted by molar mass.

What was measured:
[1] = tested on: Bordetella bronchiseptica; assay: Antibacterial activity against Bordetella bronchiseptica ATCC 4617 after 18 hrs by CLSI disc diffusion method; assay type: functional; conditions: ATCC 4617, 18 h
Bacillus spizizenii = assay: Antibacterial activity against Bacillus subtilis ATCC 6633 after 18 hrs by CLSI disc diffusion method; assay type: functional; conditions: ATCC 6633, 18 h
Staphylococcus aureus [2] = assay: Antibacterial activity against Staphylococcus aureus ATCC 25923 after 18 hrs by CLSI disc diffusion method; assay type: functional; conditions: ATCC 25923, 18 h
[3] = tested on: Staphylococcus epidermidis; assay: Antibacterial activity against Staphylococcus epidermidis ATCC 35984 after 18 hrs by CLSI […] method; assay type: functional; conditions: ATCC 35984, 18 h
Enterococcus faecalis = assay: Antibacterial activity against Enterococcus faecalis ATCC 29212 after 18 hrs by CLSI disc diffusion method; assay type: functional; conditions: ATCC 29212, 18 h
Bacillus cereus = assay: Antibacterial activity against Bacillus cereus ATCC 11778 after 18 hrs by CLSI disc diffusion method; assay type: functional; conditions: ATCC 11778, 18 h
Proteus vulgaris = assay: Antibacterial activity against Proteus vulgaris NCTC 4635 after 18 hrs by CLSI disc diffusion method; assay type: functional; conditions: NCTC 4635, 18 h
Staphylococcus aureus [4] = assay: Antibacterial activity against Staphylococcus aureus NCTC 4163 after 18 hrs by CLSI disc diffusion method; assay type: functional; conditions: NCTC 4163, 18 h
Enterococcus hirae = assay: Antibacterial activity against Enterococcus hirae ATCC 10541 after 18 hrs by CLSI disc diffusion method; assay type: functional; conditions: ATCC 10541, 18 h
Escherichia coli = assay: Antibacterial activity against Escherichia coli ATCC 10538 after 18 hrs by CLSI disc diffusion method; assay type: functional; conditions: ATCC 10538, 18 h
Pseudomonas aeruginosa [5] = assay: Antibacterial activity against Pseudomonas aeruginosa ATCC 27853 after 18 hrs by CLSI disc diffusion method; assay type: functional; conditions: ATCC 27853, 18 h
Micrococcus luteus [6] = assay: Antibacterial activity against Micrococcus luteus ATCC 10240 after 18 hrs by CLSI disc diffusion method; assay type: functional; conditions: ATCC 10240, 18 h
Staphylococcus aureus [7] = assay: Antibacterial activity against Staphylococcus aureus ATCC 6538 after 18 hrs by CLSI disc diffusion method; assay type: functional; conditions: ATCC 6538, 18 h
Pseudomonas aeruginosa [8] = assay: Antibacterial activity against Pseudomonas aeruginosa ATCC 15442 after 18 hrs by CLSI disc diffusion method; assay type: functional; conditions: ATCC 15442, 18 h
Micrococcus luteus [9] = assay: Antibacterial activity against Micrococcus luteus ATCC 9341 after 18 hrs by CLSI disc diffusion method; assay type: functional; conditions: ATCC 9341, 18 h
[10] = tested on: Staphylococcus epidermidis; assay: Antibacterial activity against Staphylococcus epidermidis ATCC 12228 after 18 hrs by CLSI disc diffusion method; assay type: functional; conditions: ATCC 12228, 18 h
A549 = assay: Cytotoxicity activity against human A549 cells assessed as reduction in cell viability after 72 hrs by MTT assay; assay type: cell-based; conditions: A549, 72 h
[11] = Selectivity index, ratio of IC50 for human HaCaT cells to MIC for Escherichia coli ATCC 10538; assay type: toxicity; conditions: read-out: Selectivity Index
[12] = Selectivity index, ratio of IC50 for human HaCaT cells to MIC for Proteus vulgaris NCTC 4635; assay type: toxicity; conditions: read-out: Selectivity Index
[13] = Selectivity index, ratio of IC50 for human HaCaT cells to MIC for Micrococcus luteus ATCC 10240; assay type: toxicity; conditions: read-out: Selectivity Index
[14] = Selectivity index, ratio of IC50 for human HaCaT cells to MIC for Enterococcus hirae ATCC 10541; assay type: toxicity; conditions: read-out: Selectivity Index
[15] = Selectivity index, ratio of IC50 for human HaCaT cells to MIC for Bacillus subtilis ATCC 6633; assay type: toxicity; conditions: read-out: Selectivity Index
[16] = Selectivity index, ratio of IC50 for human HaCaT cells to MIC for Bordetella bronchiseptica ATCC 4617; assay type: toxicity; conditions: read-out: Selectivity Index
HaCaT = assay: Cytotoxicity activity against human HaCaT cells assessed as reduction in cell viability after 72 hrs by MTT assay; assay type: cell-based
[17] = Selectivity index, ratio of IC50 for human HaCaT cells to MIC for Staphylococcus aureus NCTC 4163; assay type: toxicity; conditions: read-out: Selectivity Index

Row | SMILES | MIC [1] [µM] | MIC (Bacillus spizizenii) [µM] | MIC (Staphylococcus aureus [2]) [µM] | MIC [3] [µM] | MIC (Enterococcus faecalis) [µM] | MIC (Bacillus cereus) [µM] | MIC (Proteus vulgaris) [µM] | MIC (Staphylococcus aureus [4]) [µM] | MIC (Enterococcus hirae) [µM] | MIC (Escherichia coli) [µM] | MIC (Pseudomonas aeruginosa [5]) [µM] | MIC (Micrococcus luteus [6]) [µM] | MIC (Staphylococcus aureus [7]) [µM] | MIC (Pseudomonas aeruginosa [8]) [µM] | MIC (Micrococcus luteus [9]) [µM] | MIC [10] [µM] | IC50 (A549) [µM] | selectivity ratio [11] | selectivity ratio [12] | IC50 (HaCaT) [µM] | also measured
1 | CCn1nnnc1NCCc1c[nH]c2ccccc12 | 999 (≈ 256 µg/mL) | 999 (≈ 256 µg/mL) | > 999 | 999 (≈ 256 µg/mL) | 999 (≈ 256 µg/mL) | 999 (≈ 256 µg/mL) | 999 (≈ 256 µg/mL) | > 999 | 999 (≈ 256 µg/mL) | 999 (≈ 256 µg/mL) | 999 (≈ 256 µg/mL) | 999 (≈ 256 µg/mL) | > 999 | 999 (≈ 256 µg/mL) | 999 (≈ 256 µg/mL) | 999 (≈ 256 µg/mL) |  |  |  |  | 
2 | Clc1ccc(-n2nnnc2Nc2nccs2)cc1Cl | 410 (≈ 128 µg/mL) | 6 (≈ 1.88 µg/mL) | 51 (≈ 16 µg/mL) | 26 (≈ 8.14 µg/mL) | 103 (≈ 32.3 µg/mL) | 26 (≈ 8.14 µg/mL) | 821 (≈ 257 µg/mL) | 103 (≈ 32.3 µg/mL) | 205 (≈ 64.2 µg/mL) | 821 (≈ 257 µg/mL) | 821 (≈ 257 µg/mL) | 51 (≈ 16 µg/mL) | 51 (≈ 16 µg/mL) | 821 (≈ 257 µg/mL) | 26 (≈ 8.14 µg/mL) | 51 (≈ 16 µg/mL) |  |  |  |  | 
3 | Fc1ccc(-n2nnnc2NCCc2c[nH]c3ccccc23)cc1 | 12 (≈ 3.87 µg/mL) | 12 (≈ 3.87 µg/mL) | 12 (≈ 3.87 µg/mL) | 12 (≈ 3.87 µg/mL) | 50 (≈ 16.1 µg/mL) | 6 (≈ 1.93 µg/mL) | 12 (≈ 3.87 µg/mL) | 50 (≈ 16.1 µg/mL) | 25 (≈ 8.06 µg/mL) | 25 (≈ 8.06 µg/mL) | 397 (≈ 128 µg/mL) | 12 (≈ 3.87 µg/mL) | 25 (≈ 8.06 µg/mL) | 397 (≈ 128 µg/mL) | 12 (≈ 3.87 µg/mL) | 50 (≈ 16.1 µg/mL) |  |  |  |  | 
4 | Fc1ccc(-n2nnnc2Nc2nccs2)cc1Cl | > 865 | 14 (≈ 4.15 µg/mL) | 108 (≈ 32 µg/mL) | 14 (≈ 4.15 µg/mL) | 54 (≈ 16 µg/mL) | 14 (≈ 4.15 µg/mL) | > 865 | 108 (≈ 32 µg/mL) | 27 (≈ 8.01 µg/mL) | > 865 | > 865 | 27 (≈ 8.01 µg/mL) | 108 (≈ 32 µg/mL) | > 865 | 14 (≈ 4.15 µg/mL) | 27 (≈ 8.01 µg/mL) | 60 | 0.07 | 0.07 | 60 | selectivity ratio [13]: 2.22; selectivity ratio [14]: 2.22; selectivity ratio [15]: 4.28; selectivity ratio [16]: 0.07; selectivity ratio [17]: 0.55
5 | O=[N+]([O-])c1cc(-n2nnnc2Nc2nc[nH]n2)ccc1Cl | 417 (≈ 128 µg/mL) | 52 (≈ 16 µg/mL) | 208 (≈ 64 µg/mL) | 52 (≈ 16 µg/mL) | 208 (≈ 64 µg/mL) | 26 (≈ 8 µg/mL) | 208 (≈ 64 µg/mL) | 208 (≈ 64 µg/mL) | 208 (≈ 64 µg/mL) | 417 (≈ 128 µg/mL) | 834 (≈ 257 µg/mL) | 52 (≈ 16 µg/mL) | 208 (≈ 64 µg/mL) | 834 (≈ 257 µg/mL) | 52 (≈ 16 µg/mL) | 104 (≈ 32 µg/mL) |  |  |  |  | 
6 | O=C(O)n1nnnc1NCCc1c[nH]c2ccccc12 | 29 (≈ 7.9 µg/mL) | 15 (≈ 4.08 µg/mL) | 15 (≈ 4.08 µg/mL) | 15 (≈ 4.08 µg/mL) | 59 (≈ 16.1 µg/mL) | 7 (≈ 1.91 µg/mL) | 15 (≈ 4.08 µg/mL) | 59 (≈ 16.1 µg/mL) | 29 (≈ 7.9 µg/mL) | 29 (≈ 7.9 µg/mL) | 471 (≈ 128 µg/mL) | 15 (≈ 4.08 µg/mL) | 15 (≈ 4.08 µg/mL) | 471 (≈ 128 µg/mL) | 15 (≈ 4.08 µg/mL) | 29 (≈ 7.9 µg/mL) |  |  |  |  | 
7 | O=[N+]([O-])c1ccc(-n2nnnc2Nn2cnnc2)cc1 | 117 (≈ 32 µg/mL) | 29 (≈ 7.92 µg/mL) | 7 (≈ 1.91 µg/mL) | 4 (≈ 1.09 µg/mL) | 234 (≈ 63.9 µg/mL) | 29 (≈ 7.92 µg/mL) | 117 (≈ 32 µg/mL) | 7 (≈ 1.91 µg/mL) | 29 (≈ 7.92 µg/mL) | 117 (≈ 32 µg/mL) | 938 (≈ 256 µg/mL) | 59 (≈ 16.1 µg/mL) | 7 (≈ 1.91 µg/mL) | 938 (≈ 256 µg/mL) | 59 (≈ 16.1 µg/mL) | 4 (≈ 1.09 µg/mL) | 60 | 0.55 | 0.55 | 65 | selectivity ratio [13]: 1.1; selectivity ratio [14]: 2.24; selectivity ratio [15]: 2.24; selectivity ratio [16]: 0.55; selectivity ratio [17]: 9.28
8 | FC(F)(F)c1ccc(-n2nnnc2Nc2nccs2)cc1 | 205 (≈ 64 µg/mL) | 26 (≈ 8.12 µg/mL) | 26 (≈ 8.12 µg/mL) | 6 (≈ 1.87 µg/mL) | 51 (≈ 15.9 µg/mL) | 26 (≈ 8.12 µg/mL) | 411 (≈ 128 µg/mL) | 51 (≈ 15.9 µg/mL) | 51 (≈ 15.9 µg/mL) | 411 (≈ 128 µg/mL) | 411 (≈ 128 µg/mL) | 51 (≈ 15.9 µg/mL) | 51 (≈ 15.9 µg/mL) | 411 (≈ 128 µg/mL) | 6 (≈ 1.87 µg/mL) | 13 (≈ 4.06 µg/mL) | 76 | 0.19 | 0.19 | 80 | selectivity ratio [13]: 1.56; selectivity ratio [14]: 1.56; selectivity ratio [15]: 3.07; selectivity ratio [16]: 0.39; selectivity ratio [17]: 1.56
9 | Brc1ccc(-n2nnnc2Nn2cnnc2)cc1 | 209 (≈ 64.2 µg/mL) | 26 (≈ 7.98 µg/mL) | 52 (≈ 16 µg/mL) | 13 (≈ 3.99 µg/mL) | 52 (≈ 16 µg/mL) | 26 (≈ 7.98 µg/mL) | 13 (≈ 3.99 µg/mL) | 52 (≈ 16 µg/mL) | 52 (≈ 16 µg/mL) | 52 (≈ 16 µg/mL) | 834 (≈ 256 µg/mL) | 26 (≈ 7.98 µg/mL) | 52 (≈ 16 µg/mL) | 834 (≈ 256 µg/mL) | 26 (≈ 7.98 µg/mL) | 26 (≈ 7.98 µg/mL) | 62 | 1.25 | 5 | 65 | selectivity ratio [13]: 2.5; selectivity ratio [14]: 1.25; selectivity ratio [15]: 2.5; selectivity ratio [16]: 0.31; selectivity ratio [17]: 1.25
10 | COc1cccc2c1C(=O)c1c(O)c3c(c(O)c1C2=O)C[C@@](O)(C(=O)CO)C[C@@H]3O[C@H]1C[C@H](N)[C@H](O)[C@H](C)O1 [DOXORUBICIN] |  |  |  |  |  |  |  |  |  |  |  |  |  |  |  |  | 0.63 |  |  | 1.09 | 
